Measured values reported in patent publication US20120108431A1, “PLANT GROWTH REGULATOR ADDITIVE” (TAMINCO, NAAMLOZE VENNOOTSCHAP, priority 2009, published 2012).
“And” between values parts separate entries of the source, which are not always exact repeats. Identical values can stand only once.

Tests used:
Format in all cases: in vivo
Winter barley = Winter barley Trial 5, field trial, mean of nine varieties
Text: (§1) The applied concentration of chemical can vary widely depending on the water volume applied to plants as well as other factors such as plant age and size, and plant sensitivity to the product. Typical rates of AN-related compounds would be 1-10 g/ha (preferably and as used in these trials, 1 g per hectare was applied), typical rates of acetaminophen or its derivatives would be 1-10 g/ha (preferably and as used in these trials, 3 g per hectare was applied). Typical rates of the agrochemically acceptable additive of the present invention would be 1-10 g/ha (preferably and as used in these trials, less than 3 g per hectare was applied). The rate of other components such as spreaders and stickers can be 50-200 ml per ha.
E. WINTER BARLEY TRIAL 5—Field trial, sown 14 Oct. 2007. Mean of Nine Varieties—mean values from varieties Pearl, Flagon, Cassata, Wintmalt, Saffron, Suzuka, Marcorel, Sequel, Volume. Location: Great Dunmow, Essex, UK, 2008. Seed rate 400 seeds/sq metre. Formulations applied mid-tillering (GS23), and assessed at GS33 and at maturity.

Winter wheat cv Limerick = test: Winter wheat Trial 3, pot trial, sprayed at GS23
Protocol: The applied concentration of chemical can vary widely depending on the water volume applied to plants as well as other factors such as plant age and size, and plant sensitivity to the product. […] The rate of other components such as spreaders and stickers can be 50-200 ml per ha. C. […] Sprayed: 10 June, at GS23 (early-mid tillering). Plants were scored/assessed at GS33 on 12 July, with other measurements at crop maturity.

Soybean = Soybean Trial 1, pot trial, foliar spray at V2-V3; settings: soybean
Winter barley varieties = Winter barley varieties UK field trials, mean root weight per plant; settings: for Mean Root Weight Per Plant (g), individual replicate: GS33, individual replicates, listed as B.; for Mean Root Weight Per Plant (g), Mean: GS33, mean of replicates; for Increase in Mean Root Weight Per Plant: GS33, vs A. Control
Text: G. WINTER BARLEY VARIETIES—UK field trials. Formulations applied at mid-tillering and measured at third node stage (GS33).
(§2) Treatments compared: • A. Control vs • B. Chlormequat chloride (620 g/litre) applied at 1.0 litre in 250 litres water per hectare. • C. Anthranilic Acid (1 g/ha)+Acetaminophen (3 g/ha) in 250 litres water per hectare. • B.+C. Combination of B. and C. above, in 250 litres water per hectare.
Mean Root Weight Per Plant (g)—three winter barley varieties: individual replicates and mean values.

Winter wheat varieties = Winter wheat varieties UK field trials, mean root weight per plant; settings: for Mean Root Weight Per Plant (g), individual replicate: GS33, individual replicates, listed as B.; for Mean Root Weight Per Plant (g), Mean: GS33, mean of replicates; for Increase in Mean Root Weight Per Plant: GS33, vs A. Control
Text: F. WINTER WHEAT VARIETIES—UK field trials. Formulations applied at mid-tillering and measured at third node stage (GS33).
as §2
Mean Root Weight Per Plant (g)—three winter wheat varieties: individual replicates and mean values. Mean root weight per plant (g) is a mean value from 10 median plants taken from a representative 20 plant sample per plot.

Navy bean cv Primel = test: Navy bean Trial 2, pot trial, foliar spray at V2-V3; settings: navy bean
Winter wheat = Winter wheat Trial 4, field trial, mean of nine varieties
Text: as §1
D. WINTER WHEAT TRIAL 4—Field trial, sown 18 Oct. 2007. Mean of Nine Varieties—mean values from varieties Solstice, Battalion, Duxford, Marksman, Gallant, Panorama, Qplus, Cassius, Alchemy. Location: Great Dunmow, Essex, UK, 2008. Seed rate 400 seeds/sq metre. Formulations applied mid-tillering (GS23), and assessed at GS33 and at maturity.

[1] = winter wheat pots, increase over the line given as 0 (untreated or growth regulator alone)
[2] = score 0-9, 28 days after spraying
[3] = increase over the line given as 0 (untreated or growth regulator alone)

C[N+](C)(C)CCCl [CCC, Chlormequat chloride]
Final Ear Wt (10 ears) (Winter barley; CCC 1.0 l/ha): 22.8 g | Mean Root Diameter GS33 (cm) (Winter barley; GS33, CCC 1.0 l/ha): 2.05 cm | Mean Root Length GS33 (cm) (Winter barley; GS33, CCC 1.0 l/ha): 3.66 cm | Mean Root Weight GS33 (Winter barley; GS33, CCC 1.0 l/ha): 3.06 g | No of “large” Stems GS33 (Winter barley; GS33, CCC 1.0 l/ha): 4.23 | Total Stem Number GS33 (Winter barley; GS33, CCC 1.0 l/ha): 6.01 | Mean % Lodged Maturity (Winter barley; at maturity, CCC 1.0 l/ha): 26.3% | Total No of Shoots/Plant at GS33 (Winter wheat cv Limerick; winter wheat pots, GS33): 3.8 | Total No of “Large” Shoots/Plant at GS33 (Winter wheat cv Limerick; winter wheat pots, GS33): 2.6 | Rooting (0-9) + 28 Days (Winter wheat cv Limerick; winter wheat pots, score 0-9, 28 days after spraying): 6.0 | Final Seed Yield + % (Winter wheat cv Limerick; [1]): 0% | Rooting + % (Winter wheat cv Limerick; [1]): 0% | Total No of Shoots/Plant + % (Winter wheat cv Limerick; [1]): 0% | Total No of “Large” Shoots/Plant + % (Winter wheat cv Limerick; [1]): 0% | Final Seed Yield at Harvest (g per pot) (Winter wheat cv Limerick; winter wheat, eight plants per pot): 36.4 g per pot | No of Large Pod Bearing Branches/Plant at Harvest (Soybean; at harvest): 1.0 | Final Seed Yield at Harvest (g per pot) (Soybean; one plant per pot): 36.0 g per pot | Plant Biomass Score (0-9) at Harvest (Soybean; score 0-9): 6.0 | Rooting (0-9) + 28 Days (Soybean; [2]): 4.4 | Final Seed Yield + % (Soybean; [3]): 0% | No of Large Pod Bearing Branches/Plant + % (Soybean; [3]): 0% | Plant Biomass Score + % (Soybean; [3]): 0% | Rooting + % (Soybean; [3]): 0% | Mean Root Weight Per Plant (g), individual replicate (Winter barley varieties; winter barley variety Flagon): 4.0 g (2×) and 3.9 g and 4.2 g | Mean Root Weight Per Plant (g), Mean (Winter barley varieties; winter barley variety Flagon): 4.03 g | Increase in Mean Root Weight Per Plant (Winter barley varieties; winter barley variety Flagon): +1.65 g | Mean Root Weight Per Plant (g), individual replicate (Winter barley varieties; winter barley variety Marcorel): 2.8 g (3×) and 2.9 g | Mean Root Weight Per Plant (g), Mean (Winter barley varieties; winter barley variety Marcorel): 2.83 g | Increase in Mean Root Weight Per Plant (Winter barley varieties; winter barley variety Marcorel): +0.85 g | Mean Root Weight Per Plant (g), individual replicate (Winter barley varieties; winter barley variety Suzuka): 4.0 g and 3.0 g (3×) | Mean Root Weight Per Plant (g), Mean (Winter barley varieties; winter barley variety Suzuka): 3.25 g | Increase in Mean Root Weight Per Plant (Winter barley varieties; winter barley variety Suzuka): +0.90 g | Mean Root Weight Per Plant (g), individual replicate (Winter wheat varieties; winter wheat variety Battalion): 4.1 g and 4.3 g and 4.4 g and 4.2 g | Mean Root Weight Per Plant (g), Mean (Winter wheat varieties; winter wheat variety Battalion): 4.25 g | Increase in Mean Root Weight Per Plant (Winter wheat varieties; winter wheat variety Battalion): +1.12 g | Mean Root Weight Per Plant (g), individual replicate (Winter wheat varieties; winter wheat variety Marksman): 4.3 g and 4.4 g (2×) and 4.5 g | Mean Root Weight Per Plant (g), Mean (Winter wheat varieties; winter wheat variety Marksman): 4.40 g | Increase in Mean Root Weight Per Plant (Winter wheat varieties; winter wheat variety Marksman): +1.10 g | Mean Root Weight Per Plant (g), individual replicate (Winter wheat varieties; winter wheat variety Solstice): 3.6 g (2×) and 3.7 g and 3.8 g | Mean Root Weight Per Plant (g), Mean (Winter wheat varieties; winter wheat variety Solstice): 3.68 g | Increase in Mean Root Weight Per Plant (Winter wheat varieties; winter wheat variety Solstice): +0.9 g | No of Large Pod Bearing Branches/Plant at Harvest (Navy bean cv Primel; at harvest): 1.4 | Final Seed Yield at Harvest (g per pot) (Navy bean cv Primel; one plant per pot): 55.6 g per pot | Plant Biomass Score (0-9) at Harvest (Navy bean cv Primel; score 0-9): 5.4 | Rooting (0-9) + 28 Days (Navy bean cv Primel; [2]): 7.4 | Final Seed Yield + % (Navy bean cv Primel; [3]): 0% | No of Large Pod Bearing Branches/Plant + % (Navy bean cv Primel; [3]): 0% | Plant Biomass Score + % (Navy bean cv Primel; [3]): 0% | Rooting + % (Navy bean cv Primel; [3]): 0% | Final Ear Wt (10 ears) (Winter wheat; CCC 1.0 l/ha): 18.4 g | Mean Root Diameter GS33 (cm) (Winter wheat; GS33, CCC 1.0 l/ha): 2.51 cm | Mean Root Length GS33 (cm) (Winter wheat; GS33, CCC 1.0 l/ha): 2.40 cm | Mean Root Weight GS33 (Winter wheat; GS33, CCC 1.0 l/ha): 4.10 g | No of “large” Stems GS33 (Winter wheat; GS33, CCC 1.0 l/ha): 2.95 | Total Stem Number GS33 (Winter wheat; GS33, CCC 1.0 l/ha): 4.40 | Mean % Lodged Maturity (Winter wheat; at maturity, CCC 1.0 l/ha): 1.7%
